The data set can be described thus: cytotoxicity. The data set is classed as cell-based.

Each structure is given as a SMILES string. Where only a bound is given, the exact number is not on record here.

Compound `NC(=O)c1ncn([C@@H]2O[C@H](CO)[C@@H](O)[C@H]2O)n1` [Ribavirin] returned a CC50 of more than 100 µM.
With `CC1=CC[C@@H]2[C@]34CC[C@](O)(OC3)C(C)(C)[C@@H]4CC[C@@]2(C)[C@@]12Oc1cc(-c3cccnc3)oc(=O)c1[C@@H]2O` [Compound 8, decaturin B] the figure was more than 100 µM.

The values are drawn from paper PMC9939320 (Acta Pharmaceutica Sinica. B, 2022).
